Source: US9856294B2, “Cyclodecapeptide compounds for use as drugs” (Commissariat A L'Energie Atomique Et Aux Energies …, priority 2010, dated 2018)
Where two headings read alike, the source gives them in different places.

Assays:
[1] = log Kapp(Hg(II)) - log Kapp(Zn(II)), pH 7.4, 298 K
From the text: (§1) The selectivity between two metals M/M′ corresponds to the selectivity of the ligand for the metal M compared with that for the metal M′, this selectivity being equal to: log(Kapp(M)/Kapp(M′))=log Kapp(M)−log Kapp(M′)

[2] = pH 7.4, 298 K
From the text: These treatments must be followed for life, and must never be interrupted. They are based on chelating drugs which reduce the absorption of copper in the body, or which increase the excretion of this metal. The treatments must be subject to periodic monitoring, so as to detect the appearance of undesirable side effects.
as §1

[3] = log Kapp(Cu(II)) - log Kapp(Zn(II))

| Structure (SMILES) | Selectivity Hg/Zn [1] | Selectivity Cu/Zn [2, 3] | Selectivity Cu/Zn ([2]; log Kapp(Cu(I)) - log Kapp(Zn(II))) |
| --- | --- | --- | --- |
| OCC(S)CS (stereo not shown) [BAL, 2,3-dimercaptopropanol] | 12.2 | – | – |
| O=C(O)CN(CCN(CC(=O)O)CC(=O)O)CC(=O)O [EDTA, ethylenediaminetetraacetic acid] | 5 | 2.3 | – |
| CC(C)(S)[C@@H](N)C(=O)O [Pen, D-penicillamine] | 9.1 | – | 2.5 |
| NCCNCCNCCN [Trien, triethylenetetramine] | 12.7 | 8.1 | – |
